We go through five molecules from ChEMBL document CHEMBL5724914, “Linking interpersonal differences in gut microbiota composition and drug biotransformation activity” (2024).

The conditions of series [1]: human gut metagenome, 24 h, 2 µM.
For series [2] the following is noted: human gut metagenome, 24 h, 2 µM. This is another data set of the same source.
Series [3] is described as follows: The drug is tested on Z-021 corresponding to metagenome with ENA study accession number: PRJEB37062 and ENA sample accession number: ERS12561820 for biotransformation under anaerobic condition. The drug concentrations were measured over 9 timepoints collected between 0 and 24 hours of incubation by liquid-chromatography-coupled mass spectrometry (LC–MS). The settings on record: 2 µM.

Series [4] is described as follows: The drug is tested on Z-023 corresponding to metagenome with ENA study accession number: PRJEB37062 and ENA sample accession number: ERS12561822 for biotransformation under anaerobic condition. The drug concentrations were measured over 9 timepoints collected between 0 and 24 hours of incubation by liquid-chromatography-coupled mass spectrometry (LC–MS). To be noted: 2 µM.

The conditions of series [5]: human gut metagenome, 24 h, 2 µM. This is another data set of the same source.
For series [6] the following is noted: human gut metagenome, 24 h, 2 µM. This is another data set of the same source.
For series [7] the following is noted: human gut metagenome, 24 h, 2 µM. This is another data set of the same source.
For series [8] the following is noted: human gut metagenome, 24 h, 2 µM. This is another data set of the same source.
The conditions of series [9]: human gut metagenome, 24 h, 2 µM. The source holds these as a separate data set.
For series [10] the following is noted: human gut metagenome, 24 h, 2 µM. This is another data set of the same source.
Series [11] is described as follows: The drug is tested on Z-019 corresponding to rat gut metagenome with ENA study accession number: PRJEB37062 and ENA sample accession number: ERS12561818 for biotransformation under anaerobic condition. The drug concentrations were measured over 9 timepoints collected between 0 and 24 hours of incubation by liquid-chromatography-coupled mass spectrometry (LC–MS). The settings on record: 2 µM.

The conditions of series [12]: human gut metagenome, 24 h, 2 µM. The source holds these as a separate data set.
The nature of series [13]: The drug is tested on Z-005 corresponding to metagenome with ENA study accession number: PRJEB37062 and ENA sample accession number: ERS12561805 for biotransformation under anaerobic condition. The drug concentrations were measured over 9 timepoints collected between 0 and 24 hours of incubation by liquid-chromatography-coupled mass spectrometry (LC–MS). To be noted: 2 µM.

For series [14] the following is noted: human gut metagenome, 24 h, 2 µM. The source holds these as a separate data set.
A short description of series [15]: The drug is tested on Z-012 corresponding to metagenome with ENA study accession number: PRJEB37062 and ENA sample accession number: ERS12561812 for biotransformation under anaerobic condition. The drug concentrations were measured over 9 timepoints collected between 0 and 24 hours of incubation by liquid-chromatography-coupled mass spectrometry (LC–MS). The settings on record: 2 µM.

A short description of series [16]: The drug is tested on Z-006 corresponding to mouse gut metagenome with ENA study accession number: PRJEB37062 and ENA sample accession number: ERS12561806 for biotransformation under anaerobic condition. The drug concentrations were measured over 9 timepoints collected between 0 and 24 hours of incubation by liquid-chromatography-coupled mass spectrometry (LC–MS). The settings on record: 2 µM.

Series [17] is described as follows: The drug is tested on Z-002 corresponding to rabbit gut metagenome with ENA study accession number: PRJEB37062 and ENA sample accession number: ERS12561802 for biotransformation under anaerobic condition. The drug concentrations were measured over 9 timepoints collected between 0 and 24 hours of incubation by liquid-chromatography-coupled mass spectrometry (LC–MS). To be noted: 2 µM.

The conditions of series [18]: human gut metagenome, 24 h, 2 µM. This is another data set of the same source.
Series [19] in a line: The drug is tested on Z-020 corresponding to rabbit gut metagenome with ENA study accession number: PRJEB37062 and ENA sample accession number: ERS12561819 for biotransformation under anaerobic condition. The drug concentrations were measured over 9 timepoints collected between 0 and 24 hours of incubation by liquid-chromatography-coupled mass spectrometry (LC–MS). The settings on record: 2 µM.

For series [20] the following is noted: human gut metagenome, 24 h, 2 µM. The source holds these as a separate data set.
Further: call rule not given here.

Turning to `CC(Oc1c(Cl)cccc1Cl)C1=NCCN1` (stereo not given) [LOFEXIDINE], the “Bacterial Biotransformation” value in series [1] is reported as “Compound NOT metabolized”; in [2] it was “Compound metabolized”; in series [3], “Compound NOT metabolized”; in series [4] it was “Compound NOT metabolized”; in [5], “Compound NOT metabolized”; in series [6], “Compound NOT metabolized”. The “Bacterial Biotransformation” value is recorded as “Compound metabolized” in series [7]; “Compound NOT metabolized” in [8]; “Compound NOT metabolized” in series [9]; “Compound NOT metabolized” in series [10]; “Compound NOT metabolized” in series [11]; “Compound NOT metabolized” in series [12]. The “Bacterial Biotransformation” value is given as “Compound NOT metabolized” in series [13]; “Compound NOT metabolized” in series [14]; “Compound NOT metabolized” in series [15]; “Compound NOT metabolized” in series [16]; “Compound metabolized” in series [17]; “Compound metabolized” in series [18]. The figures for the “Bacterial Biotransformation” value in [19] and in series [20] were “Compound NOT metabolized” and “Compound metabolized”, respectively.

Turning to `CN(C)C(=O)C(CCN1CCC(O)(c2ccc(Cl)cc2)CC1)(c1ccccc1)c1ccccc1` [LOPERAMIDE], the “Bacterial Biotransformation” value in [1] was “Compound metabolized”; in [2], “Compound metabolized”; in series [3], “Compound NOT metabolized”; in [4] it was “Compound metabolized”; in series [5] it was “Compound metabolized”; in series [6], “Compound metabolized”. The “Bacterial Biotransformation” value in series [7] is “Compound metabolized”; in series [8] it was “Compound metabolized”; in series [9], “Compound metabolized”; in series [10], “Compound metabolized”; in series [11] it was “Compound NOT metabolized”; in [12], “Compound metabolized”. The “Bacterial Biotransformation” value in series [13], in [14], in [15], in series [16], in series [17] and in series [18] was “Compound metabolized” in each case. For the same molecule, the “Bacterial Biotransformation” value in series [19] and in series [20] was “Compound metabolized” throughout.

As for `CCCCc1nc(Cl)c(CO)n1Cc1ccc(-c2ccccc2-c2nn[nH]n2)cc1` [LOSARTAN], the “Bacterial Biotransformation” value in series [1] is on record as “Compound metabolized”; in series [2] it was “Compound metabolized”; in series [3], “Compound NOT metabolized”; in [4], “Compound metabolized”; in [5], “Compound metabolized”; in series [6], “Compound metabolized”. Further, the “Bacterial Biotransformation” value in series [7] is on record as “Compound metabolized”; in series [8], “Compound metabolized”; in series [9], “Compound metabolized”; in series [10], “Compound metabolized”; in series [11], “Compound NOT metabolized”; in [12] it was “Compound metabolized”. Besides, the “Bacterial Biotransformation” value in series [13] is “Compound NOT metabolized”; in [14] it was “Compound metabolized”; in series [15], “Compound NOT metabolized”; in series [16], “Compound NOT metabolized”; in [17], “Compound NOT metabolized”; in series [18], “Compound metabolized”. For the same molecule, the “Bacterial Biotransformation” value is reported as “Compound NOT metabolized” in series [19] and “Compound metabolized” in series [20].

As for `COC(=O)Nc1nc2ccc(C(=O)c3ccccc3)cc2[nH]1` [MEBENDAZOLE], the “Bacterial Biotransformation” value in [1], in series [2], in series [3], in series [4], in [5] and in series [6] was “Compound metabolized” in each case. The “Bacterial Biotransformation” value is “Compound metabolized” in series [7]; “Compound metabolized” in [8]; “Compound metabolized” in series [9]; “Compound metabolized” in series [10]; “Compound NOT metabolized” in series [11]; “Compound metabolized” in series [12]. In addition, the “Bacterial Biotransformation” value in series [13], in [14], in series [15], in [16], in series [17] and in series [18] was “Compound metabolized” each time. Moreover, the “Bacterial Biotransformation” value in [19] and in [20] was “Compound metabolized” each time.

With `COc1ccccc1OCC(O)COC(N)=O` (stereo not given) [METHOCARBAMOL], the “Bacterial Biotransformation” value in series [1], in series [2], in series [3], in series [4], in [5] and in [6] was “Compound NOT metabolized” in each case. In addition, the “Bacterial Biotransformation” value in series [7], in [8], in series [9], in series [10], in series [11] and in series [12] was “Compound NOT metabolized” throughout. Besides, the “Bacterial Biotransformation” value in series [13], in [14], in series [15], in series [16], in series [17] and in series [18] was “Compound NOT metabolized” throughout. Further, the “Bacterial Biotransformation” value in series [19] and in series [20] was “Compound NOT metabolized” in each case.
